The values that follow come from patent US20170247336A1 (MERCK SHARP & DOHME CORP., priority 2014, published 2017).

The target in one series is T1, human HIF-PHD2 (Homo sapiens, UniProt Q9GZT9).
T1 construct: FLAG-tagged full length PHD2 expressed in and purified from baculovirus-infected Sf9 cells; FLAG; made in house; host or cells: baculovirus-infected Sf9 cells
Kind of series: HIF-PHD2 inhibition: hydroxylation of HIF-1α peptide, time resolved fluorescence. To be noted: FLAG-tagged full length PHD2; 0.2 μM 2-oxoglutarate, 0.5 μM HIF-1α peptide. In kind it is biochemical. The protocol: To each well of a 384-well plate, 1 μL of test compounds in DMSO (final concentration ranging from 0.3 nM to 10 μM) were added into 20 μl of assay buffer (50 mM Tris pH 7.4/0.01% Tween-20/0.1 mg/ml bovine serum albumin/10 μM ferrous sulfate/1 mM sodium ascorbate/20 μg/ml catalase) containing 0.15 μg/ml FLAG-tagged full length PHD2 expressed in and purified from baculovirus-infected Sf9 cells. After a 5 min preincubation at room temperature, the enzymatic reactions were initiated by the addition of 4 μL of substrates {final concentrations of 0.2 μM 2-oxoglutarate and 0.5 μM HIF-1α peptide biotinyl-DLDLEMLAPYIPMDDDFQL (SEQ ID NO: 1)}. After incubation for 45 minutes at room temperature, the reactions were terminated by the addition of a 25 μL quench/detection mix to a final concentration of 1 mM ortho-phenanthroline, 0.1 mM EDTA, 0.5 nM anti-(His)6 LANCE reagent (Perkin-Elmer Life Sciences), 100 nM AF647-labeled streptavidin (Invitrogen), and 2 μg/ml (His)6-VHL complex {S. Tan Protein Expr. Purif. 21, 224-234 (2001)} and the signals were developed for 30 minutes at room temperature. The ratio of time resolved fluorescence signals at 665 and 620 nm was determined, and percent inhibition was calculated relative to the high control samples (DMSO treated) run in parallel, after background subtraction.

Series [1] in a line: Pharmacokinetics (half life) in rat after intravenous administration. In kind it is in vivo. The following applies: plasma, male Wistar Han rats; for half-life: male, Wistar Han, rat, iv, 0.5 mg/kg, read-out: Half Life (t1/2) (converted). The protocol: The half life of compounds described in this application were evaluated in rat. Shown in Table 9 are T½ of selected examples in rat (Wister Han) for selected compounds of the present invention. In addition Table 9 includes half life data for compounds disclosed in International Patent Application published as WO 2013/043621.
The pharmacokinetics of the compounds disclosed in Table 9 were studied in male Wistar Han rats after intravenous (IV) administration. For IV dosing at 0.5 mg/kg in rat, compounds were formulated as a solution in DMSO/PEG400/water (20/60/20, by vol.). Plasma samples obtained from dosed animals were prepared for analysis by means of a single step protein precipitation technique by adding 200 μL of acetonitrile to 50 μL aliquots of individual subject samples. Samples were mixed by vortex for homogeneity and then subjected to centrifugation at 3500 rpm for 10 min. The supernatant (200 μL) was collected and injected into the LC-MS/MS for analysis. Pharmacokinetic parameters were calculated using established non-compartmental methods.

T1 sequence (Q9GZT9 whole entry): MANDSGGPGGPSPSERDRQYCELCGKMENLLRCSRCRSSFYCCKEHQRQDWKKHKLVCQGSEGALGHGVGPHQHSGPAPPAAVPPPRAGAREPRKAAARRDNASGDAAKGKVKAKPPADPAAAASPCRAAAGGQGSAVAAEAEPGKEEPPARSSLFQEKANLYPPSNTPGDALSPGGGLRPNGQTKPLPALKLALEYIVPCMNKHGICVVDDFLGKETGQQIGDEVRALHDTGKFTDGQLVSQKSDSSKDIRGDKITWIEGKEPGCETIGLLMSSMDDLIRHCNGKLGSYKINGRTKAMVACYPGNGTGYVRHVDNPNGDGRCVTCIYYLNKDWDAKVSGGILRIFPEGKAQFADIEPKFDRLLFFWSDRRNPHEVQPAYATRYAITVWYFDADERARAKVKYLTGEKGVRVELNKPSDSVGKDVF

As usually defined, the IC50 is the concentration needed to halve the response being measured. A higher IC50 goes with weaker potency in that assay. In turn, `COc1ccc([C@H](NC(=O)c2cnc(C(=O)NCCC(=O)O)nc2O)c2ccccc2)cc1` [Example 37] gave a half-maximal inhibitory concentration (IC50) at human HIF-PHD2 of 2.4 nM. For the same compound, the half-life in series [1] is 0.69 h. Taken in the same sequence, the figures for `O=C(O)CCNC(=O)c1ncc(C(=O)NC2(c3ccc(Br)cc3)CC2)c(O)n1` [Example 45, 3-(5-((1-(4-bromophenyl)cyclopropyl)carbamoyl)-4-hydroxypyrimidine-2-carboxamido)propanoic acid] were 0.4 nM and 0.62 h.

Turning to `O=C(NCC1(C(=O)O)CC1)c1ncc(C(=O)NC(c2ccccc2)c2ccccc2)c(O)n1` [Example 4, 1-((5-(benzhydrylcarbamoyl)-4-hydroxypyrimidine-2-carboxamido)methyl)cyclopropanecarboxylic acid], the IC50 against human HIF-PHD2 came to 8.5 nM. For the same compound, the half-life in series [1] is 4.78 h. On human HIF-PHD2, `C[C@@H](CNC(=O)c1ncc(C(=O)NC(c2ccccc2)c2ccccc2)c(O)n1)C(=O)O` (single isomer, unassigned) [Example 1] yielded an IC50 of 2.3 nM. For the same compound, the half-life in series [1] was 1.9 h. With `O=C(O)CNC(=O)c1ncc(C(=O)NC(c2ccccc2)c2ccccc2)c(O)n1` [Example 2-12 from WO2013/040789, reference compound], the half-life in series [1] is 0.56 h.

As for `O=C(O)c1cc(-c2ncc(C(=O)NC(c3ccccc3)c3ccccc3)c(O)n2)no1` [Example 2-16 from WO2013/040789, reference compound], the half-life in series [1] is 0.3 h. With `COc1ccc([C@@H](NC(=O)c2cnc(C(=O)NCCC(=O)O)nc2O)c2ccccc2)cc1` [Example 36], the IC50 at human HIF-PHD2 turned out to be 2.7 nM. The half-life in series [1] was 6.76 h. On the same counts, the results for `COc1ccc(C(NC(=O)c2cnc(C(=O)NCCC(=O)O)nc2O)c2ccc3c(c2)CCO3)cc1` (stereo not shown) [Example 39, 3-(5-(((2,3-dihydrobenzofuran-5-yl)(4-methoxyphenyl)methyl)carbamoyl)-4-hydroxypyrimidine-2-carboxamido)propanoic acid] are 1.7 nM and 1.59 h. `CC(CNC(=O)c1ncc(C(=O)NC2(c3ccc(Br)cc3)CC2)c(O)n1)C(=O)O` (single isomer, unassigned) [Example 17, (R) or (S)-3-(5-((1-(4-bromophenyl)cyclopropyl)carbamoyl)-4-hydroxypyrimidine-2-carboxamido)-2-methylpropanoic acid] gave an IC50 against human HIF-PHD2 of 0.8 nM. In addition, the “Half Life (t1/2)” value in series [1] (IV 0.5 mg/kg) stood at 1.36 h. As for `C[C@H](CNC(=O)c1ncc(C(=O)NC(c2ccccc2)c2ccccc2)c(O)n1)C(=O)O` (single isomer, unassigned) [Example 2], at human HIF-PHD2, half-maximal inhibition (IC50) required 1.7 nM. Moreover, the half-life in series [1] was 1.45 h. On the same counts, the results for `CC(NC(=O)c1cnc(C(=O)NCCC(=O)O)nc1O)c1ccc(-c2ccc(F)cc2)cc1` (racemic) [Example 44, 3-(5-((1-(4′-fluoro-[1,1′-biphenyl]-4-yl)ethyl)carbamoyl)-4-hydroxypyrimidine-2-carboxamido)propanoic acid] are 2.5 nM and 0.69 h.

Compound `CC(CNC(=O)c1ncc(C(=O)NC2(c3ccc(Br)cc3)CC2)c(O)n1)C(=O)O` (single isomer, unassigned) [Example 16, (R) or (S)-3-(5-((1-(4-bromophenyl)cyclopropyl)carbamoyl)-4-hydroxypyrimidine-2-carboxamido)-2-methylpropanoic acid] returned a 50% inhibitory concentration (IC50) against human HIF-PHD2 of 1.3 nM. Further, the half-life in series [1] is 0.88 h.

The compound `O=C(NC[C@H](O)C(=O)O)c1ncc(C(=O)NC(c2ccccc2)c2ccccc2)c(O)n1` [Example 7, (S)-3-(5-(benzhydrylcarbamoyl)-4-hydroxypyrimidine-2-carboxamido)-2-hydroxypropanoic acid] displayed an IC50 at human HIF-PHD2 of 1.4 nM. Also, the half-life in series [1] was 1.02 h. In turn, `O=C(N[C@@H](Cc1c[nH]c2ccccc12)C(=O)O)c1ncc(C(=O)NC(c2ccccc2)c2ccccc2)c(O)n1` [Example 6, (2S)-2-(5-(benzhydrylcarbamoyl)-4-hydroxypyrimidine-2-carboxamido)-3-(3aH-indo1-3-yl)propanoic acid] yielded an IC50 on human HIF-PHD2 of 8.9 nM. Moreover, the half-life in series [1] was 1.68 h. At human HIF-PHD2, `COc1ccc([C@@H](NC(=O)c2cnc(C(=O)NC[C@@H](O)C(=O)O)nc2O)c2ccccc2)cc1` [Example 10, (R)-2-Hydroxy-3-(4-hydroxy-5-(((S)-(4-methoxyphenyl) (phenyl)methyl)carbamoyl)pyrimidine-2-carboxamido)propanoic acid] gave an IC50 of 6.8 nM. The same measure, in the same setting: then `CC(O)(CNC(=O)c1ncc(C(=O)NC(c2ccccc2)c2ccccc2)c(O)n1)C(=O)O` (stereo not shown) [Example 3, 3-(5-(Benzhydrylcarbamoyl)-4-hydroxypyrimidine-2-carboxamido)-2-hydroxy-2-methylpropanoic acid], with 4.1 nM; and `Cc1cc(C#N)ccc1-c1ccc(C(C)(C)NC(=O)c2cnc(C(=O)NCC(C)C(=O)O)nc2O)cc1` (single isomer, unassigned) [Example 23, (R) or (S)-3-(5-((2-(4′-cyano-2′-methyl-[1,1′-biphenyl]-4-yl)propan-2-yl)carbamoyl)-4-hydroxypyrimidine-2-carboxamido)-2-methylpropanoic acid], with 12 nM; and `CNc1ccc(C(NC(=O)c2cnc(C(=O)NCCC(=O)O)nc2O)c2ccc(OC)cc2)cn1` (single isomer, unassigned) [Example 34, (R) or (S)-3-(4-hydroxy-5-(((4-methoxyphenyl)(6-(methylamino)pyridin-3-yl)methyl)carbamoyl)pyrimidine-2-carboxamido)propanoic acid], with 0.58 nM.

Regarding `COc1ccc(C(NC(=O)c2cnc(C(=O)NCCC(=O)O)nc2O)c2ccccc2)cc1` (stereo not shown) [Example 38], the concentration for half-maximal inhibition (IC50) against human HIF-PHD2 is 0.9 nM.

Consider `CC(CNC(=O)c1ncc(C(=O)NC(C)(C)c2ccc(-c3ccc(Cl)cc3)cc2)c(O)n1)C(=O)O` (single isomer, unassigned) [Example 28, (R) or (S)-3-(5-((2-(4′-chloro-[1,1′-biphenyl]-4-yl)propan-2-yl)carbamoyl)-4-hydroxypyrimidine-2-carboxamido)-2-methylpropanoic acid], for which half-maximal inhibition against human HIF-PHD2 (IC50) required 5.9 nM. In the case of `COc1ccc(C(NC(=O)c2cnc(C(=O)NCC(C)C(=O)O)nc2O)c2ccc3cc(OC)ccc3n2)cc1` (single isomer, unassigned) [Example 14, (R) or (S)-3-(4-hydroxy-5-(((4-methoxyphenyl)(6-methoxyquinolin-2-yl)methyl)carbamoyl)pyrimidine-2-carboxamido)-2-methylpropanoic acid], half-maximal inhibition against human HIF-PHD2 (IC50) required 16 nM. Moreover, the half-life in series [1] was 1.36 h.

For the compound `O=C(O)CCNC(=O)c1ncc(C(=O)NC(c2ccccc2)c2ccccc2)c(O)n1` [Example 2-11 from WO2013/040789, reference compound], the half-life in series [1] is 0.28 h. `COc1ccc(C(NC(=O)c2cnc(C(=O)NCC(C)C(=O)O)nc2O)c2ccc(OC)cc2)cc1` (single isomer, unassigned) [Example 15, (R) or (S)-3-(5-((bis(4-methoxyphenyl)methy)carbamoyl)-4-hydroxypyrimidine-2-carboxamido)-2-methylpropanoic acid] registered an IC50 at human HIF-PHD2 of 10 nM. The half-life in series [1] is 0.99 h.
